Results published in patent US5688830A, “Treatment of neuropathic pain” (Syntex (U.S.A.) Inc., priority 1997, dated 1997).
Where two headings read alike, the source gives them in different places.

How the values were obtained:
[1] = system: voltage-gated sodium channels ([3H]BTX binding, rat heart); experiment: [3H]BTX binding assay, rat heart membranes
Description: (§1) The following assays characterize the interaction of the compounds of Formula I with ligand binding sites on voltage-gated sodium channels.
(§2) Frozen tissues were obtained from Pel-Freez Biologicals (Rogers, AR). Tissues were homogenized in 10 volumes of a Tris-sucrose buffer (10 mM Tris-HCl, 250 mM sucrose, pH 7.4 at 4° C.) using 10 strokes with a glass-glass, hand-held homogenizer. The homogenates were filtered through nylon mesh and then centrifuged at 1,000×g for 15 minutes. The pellets were resuspended in a Hepes buffer (50 mM Hepes, 130 mM choline chloride, 5 mM glucose, 5.4 mM KCl, pH 7.4 at 4° C.). The resuspended pellets were centrifuged at 1,000×g for 15 minutes, resuspended in a Hepes buffer (50 mM Hepes, 130 mM choline chloride, 5 mM glucose, 5.4 mM KCl, pH 7.4 at 25° C.) and, frozen at -70° C. until used in binding assays.
(§3) Cell membranes prepared as in Example 10A above were incubated with 16 nM [^3 H]BTX in 250 μl of Hepes buffer (50 mM Hepes, 130 mM choline chloride, 5 mM glucose, 5.4 mM KCl, pH 7.4 at 25° C.). Nonspecific binding was defined in the presence of 1 mM veratridine. Unless otherwise specified, PbTx (0.1 μM) and LqTx (50 μg/ml) were included in the assays. […] Filters were rinsed with 3×1 ml of ice cold 50 mM Tris-HCl (pH 7.4 at 4° C.) and the bound radioactivity was determined by scintillation counting (Packard Top-count).

[2] = system: voltage-gated sodium channels ([3H]BTX binding, rat dorsal root ganglion); experiment: [3H]BTX binding assay, rat dorsal root ganglion membranes
Description: as §1, §2, §3

[3] = system: [3H]STX binding site on the rat brain sodium channel; experiment: [3H]STX binding assay
Description: as §1, §2
Membranes as prepared in Example 10A above were incubated at 37° C. for 30 minutes in 250 μl of a Hepes buffer (50 mM Hepes, 130 mM choline chloride, 5.5 mM glucose, 0.8 mM MgSO4, 5.4 mM KCl, pH 7.4 at 37° C.) containing 1 nM [^3 H]STX. Nonspecific binding was defined with 1 μM tetrodotoxin (TTX). […] The filters were rinsed with 3×1 ml ice cold H2 O and the bound radioactivity determined in a Packard 1900 liquid scintillation counter using Aquasol scintillation fluid.

[4] = system: local anesthetic site of the sodium channel in rat brain cortex membranes; experiment: [3H]PD85639 binding assay
Description: as §1, §2
Membranes as prepared in Example 10A above were incubated with 3 nM [^3 H]PD 85639 in 250 μl of Hepes buffer (50 mM Hepes, 130 mM choline chloride, 5 mM glucose, 5.4 mM KCl, pH 7.4 at 25° C. with Tris base). Nonspecific binding was defined in the presence of 0.1 mM PD85639. […] Filters were rinsed with 3×1 ml of ice cold 50 mM Tris-HCl (pH 7.4 at 4° C.) and the bound radioactivity was determined by scintillation counting (Packard Top-count).

[5] = system: rat brain type IIA sodium channel; experiment: [14C]Guanidinium ion influx assay, rat brain type IIA sodium channel in CHO cells; assay type: cell-based
Description: (§4) Chinese hamster ovary cells stably expressing the rat brain type IIA sodium channel subunit were maintained in RPMI 1640 with 10% fetal bovine serum and […] G-418. Chinese hamster lung cells stably expressing the human heart (hH1a) sodium channel subunit were maintained in DMEM with 5% fetal bovine serum and 300 μg/ml G-418. Both cells were subcultured and grown to confluence in 24-well plates 2-3 days before each experiment. After the growth medium was removed, the cells were washed with warm buffer (25 mM Hepes-Tris, 135 mM choline chloride, 5.4 mM potassium chloride, 0.98 mM magnesium sulfate, 5.5 mM glucose, and 1 mg/ml BSA, pH 7.4) and incubated in buffer on a 36° C. slide warmer for approximately 10 minutes. Various concentrations of the test compounds or standard sodium channel blockers (10 μl) and then veratridine (100 μM) were added to each well. After the cells were exposed to veratridine for 5 minutes, 5 μM of [^14 C]guanidinium was added, incubated with the radioligand, washed with 4 ml of ice-cold buffer, and dissolved in 0.1N sodium hydroxide. The radioactivity and the protein concentration of each cell lysate were determined by liquid scintillation counting and the protein assay using Pierce BCA reagent.

[6] = system: human heart (hH1a) sodium channel; experiment: [14C]Guanidinium ion influx assay, human heart (hH1a) sodium channel in Chinese hamster lung cells; assay type: cell-based
Description: as §4

cold allodynia in rats = experiment: Cold allodynia in vivo assay (chronic constriction injury), acute studies; set-up: species or system rat; details: subcutaneous; for ED50: Rattus norvegicus, sc
Description: This assay determines the effectiveness of compounds in relieving one of the symptoms of neuropathic pain produced by unilateral mononeuropathy, namely cold allodynia. Unilateral mononeuropathy was produced in rats using the Chronic Constriction Injury model performed essentially as described by Bennet and Xie, Pain, (1988) 33:87-107. Briefly, the rats were anesthetized with an intraperitoneal dose of pentobarbital sodium (65 mg/kg) with additional doses of anesthetic given as needed. The lateral aspect of each rat's hind limb was shaved and scrubbed with Novasan. Using aseptic technique, an incision was made on the lateral aspect of the hind limb at the mid-thigh level. The biceps femoris was bluntly dissected to expose the sciatic nerve. On the right hind limb of each rat, four loosely tied ligatures were made around the sciatic nerve approximately 1-2 millimeters apart. On the left side of each rat, an identical dissection was performed except that the sciatic nerve was not ligated. The muscle was closed with a continuous suture pattern, and the skin was closed with wound clips. Each rat was placed individually into a plexiglass chamber with a metal plate 6 cm from the bottom. This chamber was filled with ice water to a depth of 2.5 cm above the metal plate, with the temperature of the bath maintained at 0° C. throughout the experiment. A timer was started, and the rat's response latency was measured to the nearest tenth of a second. A "response" was defined as a rapid withdrawal of the right ligated hindpaw completely out of the water while the animal was stationary and not pivoting. An exaggerated limp while the animal was walking was not scored as a response. Maximum immersion time was 20 seconds with a 20 minute interval between trials. The screening criteria were 1) the average of two trials was less than or equal to 13 seconds, and 2) there was consistency across the two trial scores. Animals were screened for hypersensitivity to cold on post-surgery days 4 through 10, and selected for inclusion in dose-response studies based on the criteria described above. The pre-dose screening values were used as the animal's baseline cold allodynia scores. For acute studies, the animals received either subcutaneous or oral injections and were tested for cold allodynia at 1, 3, and sometimes 5 hours post-dose. The selection of doses was similar to that of Example 12C.

neuropathic pain models = experiment: Neuropathic pain models / standard assays (summary statements); assay type: in vivo; details: vs methylamine and propylamine analogues and isomers thereof
[7] = cold allodynia, acute, 1 hr, read-out: ED50 1 hr
[8] = cold allodynia, acute, in words

Row | Compound | inhibition of [3H]BTX binding [1] | inhibition of [3H]BTX binding [2] | affinity for the [3H]STX binding site [3] | inhibition of [3H]PD85639 binding to the local anesthetic site [4] | inhibition of veratridine-stimulated [14C]Guanidinium ion influx [5] | inhibition of veratridine-stimulated [14C]Guanidinium ion influx [6] | ED50 (cold allodynia in rats; [7]) [mg/kg] | Emax 1 hr (cold allodynia in rats; cold allodynia, acute, 1 hr) [%] | anti-allodynic effect, acute dosing (cold allodynia in rats; 5 mg/kg, 1, 3 or 5 hours post-dose) | activity in standard assays compared with close analogues (neuropathic pain models) | ED50 (cold allodynia in rats; cold allodynia, acute, 3 hr, read-out: ED50 3 hr) [mg/kg] | Emax 3 hr (cold allodynia in rats; cold allodynia, acute, 3 hr) [%] | duration of action in vivo compared with racemate, (S)-enantiomer, or II (cold allodynia in rats; [8]) | maximal analgesic activity (Emax) compared with III or IV (cold allodynia in rats; [8]) | maximal analgesic activity compared with racemate, (S)-enantiomer, or II (cold allodynia in rats; [8]) | potency (ED50) comparison of (R)-isomers (cold allodynia in rats; [8])
1 | CCNC(C)COc1c(C)cccc1C (racemic) [Formula I racemate, [2-(2,6-dimethylphenoxy)-1-methylethyl]-ethylamine] | inhibited | inhibited | no detectable affinity | inhibited | inhibited | inhibited | 15.7 | 82 | no significant anti-allodynic effects | unexpectedly more active |  |  |  |  |  | 
2 | CCN[C@H](C)COc1c(C)cccc1C [Formula I (R)-, (R)-[2-(2,6-dimethylphenoxy)-1-methylethyl]-ethylamine] |  |  |  |  |  |  | 37 | 91 |  |  | 23.4 | 87 | longer duration of action | significantly greater maximal analgesic activity | greater maximal analgesic activity | comparable potency
